From patent US20250320211A1, “COMPOUND, COMPOSITION, AND ELECTROPHOTOGRAPHIC PHOTORECEPTOR” (MITSUBISHI CHEMICAL CORPORATION, priority 2022, published 2025)

Test: Evaluation of solubility in organic solvent
Format: physicochemical
Settings: toluene/2-propanol mixed solvent
Description: Compounds 1 to 2 or Comparative Compounds 1 to 5 were respectively added to a mixed solvent of toluene/2-propanol=3/7 (mass ratio) at room temperature (25° C.) so as to have a concentration of 8% by mass, and stirred for 10 minutes with a rotor without heating or cooling. The state of dissolution was then visually observed, and the solubility was evaluated according to the following criteria.
When any residue was observed, the mixture was heated in a water bath at a constant temperature (40° C.) for 10 minutes as described below, and the state of dissolution was visually observed again to evaluate the solubility.

Compound	solubility in organic solvents (in words)
CCCCCCC(CCCCCC)N1C(=O)c2ccc3c4ccc5c6c(ccc(c7ccc(c2c37)C1=O)c64)C(=O)N(C(CCCCCC)CCCCCC)C5=O [Comparative Compound 2]	poor solubility
C=CC(=O)OCCOC(=O)CCC(=O)OCC(CC(C)C)N1C(=O)c2ccc3c4ccc5c6c(ccc(c7ccc(c2c37)C1=O)c64)C(=O)N(C(COC(=O)CCC(=O)OCCOC(=O)C=C)CC(C)C)C5=O (stereo not shown) [Comparative Compound 3]	poor solubility
C=C(C)C(=O)OCC(COC(=O)C(=C)C)OC(=O)CCC(=O)OCC(CC(C)C)N1C(=O)c2ccc3c4ccc5c6c(ccc(c7ccc(c2c37)C1=O)c64)C(=O)N(C(COC(=O)CCC(=O)OC(COC(=O)C(=C)C)COC(=O)C(=C)C)CC(C)C)C5=O (stereo not shown) [Comparative Compound 4]	excellent solubility in organic solvents
C=C(C)C(=O)OCC(COC(=O)C(=C)C)OC(=O)CCC(=O)OCC(COC(=O)CCC(=O)OC(COC(=O)C(=C)C)COC(=O)C(=C)C)N1C(=O)c2ccc3c4ccc5c6c(ccc(c7ccc(c2c37)C1=O)c64)C(=O)N(C(COC(=O)CCC(=O)OC(COC(=O)C(=C)C)COC(=O)C(=C)C)COC(=O)CCC(=O)OC(COC(=O)C(=C)C)COC(=O)C(=C)C)C5=O [Comparative Compound 5]	excellent solubility in organic solvents
